{"source": "patent US5504097A", "about": "“N-hydroxyureas as 5-lipoxygenase inhibitors and inhibitors of oxidative modification of low density lipoprotein” (American Home Products Corporation, priority 1995, dated 1996)", "tested_on": "Low Density Lipoprotein", "test": "Inhibition of Copper Ion Mediated Oxidation of Low Density Lipoprotein", "format": "biochemical", "details": "Cu^+2 mediated oxidation of rabbit or monkey LDL", "method": "5. Inhibition of Copper Ion Mediated Oxidation of Low Density Lipoprotein\nIn this in vitro assay, the inhibition of Cu^+2 mediated oxidation of rabbit or monkey LDL by an invention compound is determined spectrophotometricallly. Oxidation of LDL results in the formation of LDL-diene which absorbs light at 532 nm. Inhibition of oxidation of LDL leads to a decrease in absorbance at 532 nm.\nRabbit or monkey LDL is prepared according to the procedures of Havel, Eder and Gragdon, \"The Distribution and Chemical Composition of Ultracentrifugally Separated Lipoproteins in Human Serum,: J, Clin. Invest. 34, 1345-1353 (1955) and Parhtasarathy, Wieland and Steriberg, \"A Role for Endothelial Cell Lipoxygenase in the Oxidative Modification of Low Density Lipoprotein,\" Proc, Natl. Acad. Sci. USA 86, 1046-1050 (1989). Test compound solutions are prepared by dissolving the invention compounds in ethanol at concentrations up to 248 μM. The medium used is Dulbecco's phosphate buffered saline containing 0.5 mg/ml bovine serum albumin. For standards, 0 to 10 μl of an aqueous solution of 1,1,3,3-tetraethoxypropane (1 μmol/ml H2 O) in 4.1 ml of medium is used.\nTest compound solution (100 μl) is added to 4 ml of medium in incubation tubes. To each tube is added 10 μl of LDL solution and 25 μl of aqueous copper sulfate solution (1.32 mg/ml H2 O ). The tubes are incubated at 37° C. for 90 minutes and the oxidation reaction quenched by addition of 1 ml of thiobarbituric acid solution (0.67% in 50% acetic acid). The tubes are heated at 90° C. for 1 hour, then chilled in an ice bath and the chromophore extracted into 2 ml of n-butanol. Absorbence is read at 532 nm and the results are reported as nmols of malondialdehyde equivalents.\nSignificant differences (p<0.05) are determined by the Dunnett T-test or by the Student-Newman-Keuls Test for significant differences between means. The assay is conducted using several concentrations I! of the inhibitor test compounds. The LDL solution concentrations at different experiments were either 1.5 mg/ml, 2.5 mg/ml or 10.3 mg/ml. The IC50 is determined by non-linear regression, plotting log I! vs. % inhibition. (Reference: K. Yagi, Biochemical Medicine 15, 212-216 (1976)).", "data": [{"smiles": "Cc1oc(-c2ccccc2)nc1COc1ccc(CN(O)C(N)=O)cc1", "note": "[Example 1, 1-Hydroxy-1-4-(5-methyl-2-phenyl-oxazol-4-ylmethoxy)-benzyl!-urea]", "values": [{"measurement": "IC50", "value": 1100, "unit": "nM"}]}]}
